Broadly, the IC50 is the concentration at which inhibition is half-maximal.

Starred links: 1 amine or outer side, 2 acyl side, 3 side chain; linkers in the order of their positions; H or OH if unused. Positions of bridges follow the written chain, without caps; N, C: chain ends. Non-standard residues stand in square brackets, D forms with d. Residues, ends and D or L forms follow the SMILES beside them. Groups on a side chain read outwards from the residue. *: point of attachment. C20 diacid = O=C(O)CCCCCCCCCCCCCCCCCCC(=O)*; Trp(1-Me) = Cn1cc(C[C@H](N)C(=O)O)c2ccccc21; C18 diacid = O=C(O)CCCCCCCCCCCCCCCCC(=O)*; C16 diacid = O=C(O)CCCCCCCCCCCCCCC(=O)*; γGlu = O=C(O)[C@H](CCC(=O)[*:2])N[*:1]; AEEA = NCCOCCOCC(=O)O; Sar = CNCC(=O)O A value given as a limit tells only on which side of the number the result lay.

For the first test, the system named is classical complement pathway. The experiment in a line: In vitro haemolysis assay (inhibition of classical complement pathway). Conditions: Table 5, different residues at position 3 of Ac-IC(1)XWQDWGEHRC(1)T-NH2; read-out: IC50, CP hemolysis. In kind it is cell-based, human. In short, it runs like this:
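Compound dilutions preincubated 15 min at room temperature with diluted human serum (titrated per batch for 70-90% maximal haemolysis), then antibody-sensitized sheep RBC (10^7/well) added for 30 min at 37 °C in Tris/casein buffer, pH 7.4. Stopped with EDTA; haemolysis read at 405 nm; IC50 by 4PL fit.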
As to “Ac-IC(1)XWQDWGEHRC(1)T-NH2 [Beta-Homo-lsoleucine, reference compound]”, the IC50 was above 10000 nM.

Staying with this test, now noted: human serum, sensitized sheep red blood cells; Table 3, given as upper bounds; read-out: IC50, inhibition of hemolysis.
For the compound `CC[C@H](C)[C@@H]1NC(=O)[C@@H](NC(=O)[C@H](Cc2ccccc2)NC(=O)[C@H](CCC(=O)O)NC(=O)[C@H](CO)NC(C)=O)CSSC[C@@H](C(=O)N[C@H](C(=O)N[C@@H](CCC(=O)O)C(=O)NCC(=O)N[C@@H](CCC(=O)O)C(=O)NCC(=O)NCC(=O)NCC(=O)N[C@@H](CCCCNC(=O)CC[C@H](NC(=O)CNC(=O)CC[C@H](NC(=O)CCCCCCCCCCCCCCCCC(=O)O)C(=O)O)C(=O)O)C(N)=O)[C@@H](C)O)NC(=O)[C@H](CCCNC(=N)N)NC(=O)[C@H](Cc2c[nH]cn2)NC(=O)[C@H](CCC(=O)O)NC(=O)CNC(=O)[C@H](Cc2c[nH]c3ccccc23)NC(=O)[C@H](CC(=O)O)NC(=O)[C@H](CCC(N)=O)NC(=O)[C@H](Cc2cn(C)c3ccccc23)NC1=O` [Compound 130] (Ac-SEFCI[Trp(1-Me)]QDWGEHRCTEGEGGGK([γGlu-Gly-γGlu-C18 diacid])-NH2; disulfide 4-14), the IC50 was below 100 nM.

As for `CC[C@H](C)[C@@H]1NC(=O)[C@@H](NC(=O)[C@H](Cc2ccc(O)cc2)NC(C)=O)CSSC[C@@H](C(=O)N[C@H](C(N)=O)[C@@H](C)O)NC(=O)[C@H](CCCNC(=N)N)NC(=O)[C@H](Cc2c[nH]cn2)NC(=O)[C@H](CCC(=O)O)NC(=O)CNC(=O)[C@H](Cc2c[nH]c3ccccc23)NC(=O)[C@H](CC(=O)O)NC(=O)[C@H](CCC(N)=O)NC(=O)[C@H](Cc2c[nH]c3ccccc23)NC1=O` [Compound 9] (Ac-YCIWQDWGEHRCT-NH2; disulfide 2-12), the IC50 is below 100 nM. On the same count and under the same terms, the result for `CC[C@H](C)[C@H](NC(=O)[C@H](C)NC(=O)[C@H](CO)NC(=O)CNC(=O)[C@H](CCC(=O)O)NC(C)=O)C(=O)N[C@H]1CSSC[C@@H](C(=O)N[C@H](C(=O)N[C@@H](CCC(=O)O)C(=O)NCC(=O)N[C@@H](CCCCNC(=O)CC[C@H](NC(=O)CCCCCCCCCCCCCCC(=O)O)C(=O)O)C(N)=O)[C@@H](C)O)NC(=O)[C@H](CCCNC(=N)N)NC(=O)[C@H](Cc2c[nH]cn2)NC(=O)[C@H](CCC(=O)O)NC(=O)CNC(=O)[C@H](Cc2c[nH]c3ccccc23)NC(=O)[C@H](CC(=O)O)NC(=O)[C@H](CCC(N)=O)NC(=O)[C@H](Cc2c[nH]c3ccccc23)NC(=O)[C@H]([C@@H](C)CC)NC1=O` [Compound 101] (Ac-EGSAICIWQDWGEHRCTEGK([γGlu-C16 diacid])-NH2; disulfide 6-16) reads below 500 nM; that for `CC[C@H](C)[C@@H]1NC(=O)[C@@H](NC(=O)CN(C)C(=O)[C@H](CCC(=O)O)NC(=O)[C@H](CO)NC(C)=O)CSSC[C@@H](C(=O)N(C)CC(=O)N[C@@H](CCC(=O)O)C(=O)N[C@@H](C)C(N)=O)NC(=O)[C@H](CCCNC(=N)N)NC(=O)[C@H](Cc2c[nH]cn2)NC(=O)[C@H](CCC(=O)O)NC(=O)CNC(=O)[C@H](Cc2c[nH]c3ccccc23)NC(=O)[C@H](CCC(=O)O)NC(=O)[C@H](CCC(N)=O)NC(=O)[C@H](Cc2cn(C)c3ccccc23)NC1=O` [Compound 90] (Ac-SE[Sar]CI[Trp(1-Me)]QEWGEHRC[Sar]EA-NH2; disulfide 4-14), below 250 nM. Same read-out and setting: then `CC[C@H](C)[C@H](NC(C)=O)C(=O)N[C@H]1CSSC[C@@H](C(=O)N[C@H](C(=O)NCC(=O)N[C@@H](C)C(=O)N[C@@H](CCC(=O)O)C(=O)N[C@@H](CO)C(N)=O)[C@@H](C)O)NC(=O)[C@H](CCCNC(=N)N)NC(=O)[C@H](Cc2c[nH]cn2)NC(=O)[C@H](C)NC(=O)CNC(=O)[C@H](Cc2c[nH]c3ccccc23)NC(=O)[C@H](CCCCN)NC(=O)[C@H](CCC(N)=O)NC(=O)[C@H](Cc2c[nH]c3ccccc23)NC(=O)[C@H]([C@@H](C)CC)NC1=O` [Compound 8] (Ac-ICIWQKWGAHRCTGAES-NH2; disulfide 2-12), with below 500 nM. The same measure, in the same setting: the result for `CC[C@H](C)[C@@H]1NC(=O)[C@@H](NC(=O)[C@H](Cc2ccccc2)NC(=O)[C@H](CCC(=O)O)NC(=O)[C@H](CO)NC(C)=O)CSSC[C@@H](C(=O)N(C)CC(=O)N[C@@H](CCC(=O)O)C(=O)NCC(=O)N[C@@H](C)C(=O)N[C@@H](CCCCNC(=O)COCCOCCNC(=O)CC[C@H](NC(=O)COCCOCCNC(=O)CNC(=O)CC[C@H](NC(=O)CCCCCCCCCCCCCCCCC(=O)O)C(=O)O)C(=O)O)C(N)=O)NC(=O)[C@H](CCCNC(=N)N)NC(=O)[C@H](Cc2c[nH]cn2)NC(=O)[C@H](CCC(=O)O)NC(=O)CNC(=O)[C@H](Cc2c[nH]c3ccccc23)NC(=O)[C@H](CCC(=O)O)NC(=O)[C@H](CCC(N)=O)NC(=O)[C@H](Cc2cn(C)c3ccccc23)NC1=O` [Compound 120] (Ac-SEFCI[Trp(1-Me)]QEWGEHRC[Sar]EGAK([AEEA-γGlu-AEEA-Gly-γGlu-C18 diacid])-NH2; disulfide 4-14) reads below 250 nM. For the compound `CC[C@H](C)[C@@H]1NC(=O)[C@@H](NC(=O)CN(C)C(C)=O)CSSC[C@@H](C(=O)N[C@H](C(N)=O)[C@@H](C)O)NC(=O)[C@H](CCCNC(=N)N)NC(=O)[C@H](Cc2c[nH]cn2)NC(=O)[C@H](CCC(=O)O)NC(=O)CNC(=O)[C@H](Cc2c[nH]c3ccccc23)NC(=O)[C@H](CC(=O)O)NC(=O)[C@H](CCC(N)=O)NC(=O)[C@H](Cc2c[nH]c3ccccc23)NC1=O` [Compound 11] (Ac-[Sar]CIWQDWGEHRCT-NH2; disulfide 2-12), the concentration for half-maximal inhibition (IC50) was below 100 nM.

Regarding `CC[C@H](C)[C@@H]1NC(=O)[C@@H](NC(=O)CN(C)C(=O)[C@H](CCC(=O)O)NC(=O)[C@H](CO)NC(C)=O)CSSC[C@@H](C(=O)N[C@H](C(=O)N[C@@H](CCC(=O)O)C(=O)N[C@@H](C)C(N)=O)[C@@H](C)O)NC(=O)[C@H](CCCNC(=N)N)NC(=O)[C@H](Cc2c[nH]cn2)NC(=O)[C@H](CCC(=O)O)NC(=O)CN(C)C(=O)[C@H](Cc2c[nH]c3ccccc23)NC(=O)[C@H](CCC(=O)O)NC(=O)[C@H](CCC(N)=O)NC(=O)[C@H](Cc2cn(C)c3ccccc23)NC1=O` [Compound 89, Ac-SE[Sar]C(1)I[1-Me-Trp]QEW[Sar]EHRC(1)TEA-NH2] (Ac-SE[Sar]CI[Trp(1-Me)]QEW[Sar]EHRCTEA-NH2; disulfide 4-14), the IC50 is below 100 nM.

On to `CC[C@H](C)[C@H](NC(C)=O)C(=O)N[C@H]1CSSC[C@@H](C(=O)N[C@@H](CO)C(N)=O)NC(=O)[C@H](CCCNC(=N)N)NC(=O)[C@H](Cc2c[nH]cn2)NC(=O)[C@H](CCC(=O)O)NC(=O)CNC(=O)[C@H](Cc2c[nH]c3ccccc23)NC(=O)[C@H](CC(=O)O)NC(=O)[C@H](CCC(N)=O)NC(=O)[C@H](Cc2c[nH]c3ccccc23)NC(=O)[C@H]([C@@H](C)CC)NC1=O` [Compound 21] (Ac-ICIWQDWGEHRCS-NH2; disulfide 2-12), for which the IC50 is below 100 nM. As for `CC[C@H](C)[C@H](NC(C)=O)C(=O)N[C@H]1CSSC[C@@H](C(=O)N[C@H](C(=O)N[C@@H](CCC(=O)O)C(=O)NCC(=O)N[C@@H](CCCCNC(=O)COCCOCCNC(=O)COCCOCCNC(=O)CC[C@H](NC(=O)CCCCCCCCCCCCCCCCCCC(=O)O)C(=O)O)C(N)=O)[C@@H](C)O)NC(=O)[C@H](CCCNC(=N)N)NC(=O)[C@H](Cc2c[nH]cn2)NC(=O)[C@H](CCC(=O)O)NC(=O)CNC(=O)[C@H](Cc2c[nH]c3ccccc23)NC(=O)[C@H](CC(=O)O)NC(=O)[C@H](CCC(N)=O)NC(=O)[C@H](Cc2c[nH]c3ccccc23)NC(=O)[C@H]([C@@H](C)CC)NC1=O` [Compound 98] (Ac-ICIWQDWGEHRCTEGK([AEEA-AEEA-γGlu-C20 diacid])-NH2; disulfide 2-12), the IC50 is below 500 nM.

The test is the same for the next values; noted with them: human serum, sensitized sheep red blood cells; Table 4, valine 3 vs isoleucine 3 pairs; read-out: CP hemolysis IC50.
In the case of `CC[C@H](C)[C@H](NC(C)=O)C(=O)N[C@H]1CSSC[C@@H](C(=O)N[C@H](C(N)=O)[C@@H](C)O)NC(=O)[C@H](CCCNC(=N)N)NC(=O)[C@H](Cc2c[nH]cn2)NC(=O)[C@H](CO)NC(=O)CNC(=O)[C@H](Cc2c[nH]c3ccccc23)NC(=O)[C@H](CC(=O)O)NC(=O)[C@H](CCC(N)=O)NC(=O)[C@H](Cc2c[nH]c3ccccc23)NC(=O)[C@H](C(C)C)NC1=O` [B, reference compound] (Ac-ICVWQDWGSHRCT-NH2; disulfide 2-12), the IC50 is 360 nM. As to `CC[C@H](C)[C@H](NC(C)=O)C(=O)N[C@H]1CSSC[C@@H](C(=O)N[C@H](C(=O)NCC(=O)N[C@@H](C)C(=O)N[C@@H](CCC(=O)O)C(=O)N[C@@H](CO)C(N)=O)[C@@H](C)O)NC(=O)[C@H](CCCNC(=N)N)NC(=O)[C@H](Cc2c[nH]cn2)NC(=O)[C@H](CCC(=O)O)NC(=O)CNC(=O)[C@H](Cc2c[nH]c3ccccc23)NC(=O)[C@H](CC(=O)O)NC(=O)[C@H](CCC(N)=O)NC(=O)[C@H](Cc2c[nH]c3ccccc23)NC(=O)[C@H](C(C)C)NC1=O` [D, reference compound] (Ac-ICVWQDWGEHRCTGAES-NH2; disulfide 2-12), the IC50 turned out to be 210 nM. Still for that read-out and setting: the result for `CC[C@H](C)[C@H](NC(C)=O)C(=O)N[C@H]1CSSC[C@@H](C(=O)N[C@H](C(=O)N[C@@H](CCC(=O)O)C(=O)NCC(=O)N[C@@H](CCC(=O)O)C(N)=O)[C@@H](C)O)NC(=O)[C@H](CCCNC(=N)N)NC(=O)[C@H](Cc2c[nH]cn2)NC(=O)[C@H](CCC(=O)O)NC(=O)CNC(=O)[C@H](Cc2c[nH]c3ccccc23)NC(=O)[C@H](CC(=O)O)NC(=O)[C@H](CCC(N)=O)NC(=O)[C@H](Cc2c[nH]c3ccccc23)NC(=O)[C@H](C(C)C)NC1=O` [J, reference compound] (Ac-ICVWQDWGEHRCTEGE-NH2; disulfide 2-12) reads 240 nM; that for `CC[C@H](C)[C@H](NC(C)=O)C(=O)N[C@H]1CSSC[C@@H](C(=O)N[C@@H](CO)C(N)=O)NC(=O)[C@H](CCCNC(=N)N)NC(=O)[C@H](Cc2c[nH]cn2)NC(=O)[C@H](CCC(=O)O)NC(=O)CNC(=O)[C@H](Cc2c[nH]c3ccccc23)NC(=O)[C@H](CC(=O)O)NC(=O)[C@H](CCC(N)=O)NC(=O)[C@H](Cc2c[nH]c3ccccc23)NC(=O)[C@H]([C@@H](C)CC)NC1=O` [Compound 21] (Ac-ICIWQDWGEHRCS-NH2; disulfide 2-12), 77 nM.

The values are drawn from patent US11965039B2, “Compstatin analogues and their medical uses” (priority 2018, dated 2024).
